The source of these data is patent publication US6924314B2, “Compounds for the treatment of metabolic disorders” (Wellstat Therapeutics Corporation, priority 2001, dated 2005).

The subject of the experiment is db/db mice. Briefly: Antidiabetic effects in db/db mice, 2 weeks (Example J). The experiment is classed as in vivo, C57BL/Ksola mice. As to conditions: for Glucose / Glucose (% of Control): nonfasting; for Free Fatty Acids ± SEM / Triglycerides ± SEM: serum, daily oral. From the text:
db/db mice have a defect in leptin signaling, leading to hyperphagia, obesity and diabetes. Moreover, unlike ob/ob mice on a C57BL/6J background, db/db mice on a C57BL/KS background undergo failure of their insulin-producing pancreatic islet cells, resulting in progression from hyperinsulinemia (associated with peripheral insulin resistance) to hypoinsulinemic diabetes.
A minimum of 7 days was allowed for adaptation after arrival.
Treatment cohorts were given daily oral doses of Vehicle (1% hydroxypropylmethylcellulose), Compounds BI, BS, BT, BU, BV or Fenofibrate for 2 weeks. At the end of the treatment period 100 μl of venous blood was withdrawn in a heparinized capillary tube from the retro-orbital sinus of db/db mice for serum chemistry analysis.

Take `CC(C)OC(=O)C(C)(C)Oc1ccc(C(=O)c2ccc(Cl)cc2)cc1` [Fenofibrate, reference compound]: where the note is “113 mg/kg daily oral”, the “Glucose” value was 563.2 ± 49.0 mg/dL and the “Glucose (% of Control)” value was 81 ± 7 % of Control. Moreover, for the setting “dose per Table 12: 113 mg/kg”, the “Free Fatty Acids ± SEM” value amounted to 3318.5 ± 208.7 µM and the “Triglycerides ± SEM” value was 109.3 ± 9.1 mg/dL.
As to `COc1cc(C(=O)CCC(=O)O)ccc1OCc1c(C)cccc1C` [BT, 4-[[4-(2,6-Dimethylbenzyloxy)-3-methoxy]phenyl]-4-oxobutyric acid], where the note is “107 mg/kg daily oral”, the “Glucose” value stood at 684.3 ± 63.6 mg/dL and the “Glucose (% of Control)” value is given as 99 ± 9 % of Control. For the same compound, for the setting “dose per Table 12: 107 mg/kg”, the “Free Fatty Acids ± SEM” value was 3897.7 ± 291.3 µM and the “Triglycerides ± SEM” value is 211.5 ± 21.5 mg/dL.
Regarding `Cc1cccc(C)c1COc1cccc(CCCC(=O)O)c1` [BS, 4-(3-(2,6-Dimethylbenzyloxy)phenyl)butyric acid], where the note is “93 mg/kg daily oral”, the “Glucose” value was 372.0 ± 53.8 mg/dL and the “Glucose (% of Control)” value is reported as 54 ± 8 % of Control. Where the note is “dose per Table 12: 93 mg/kg”, the “Free Fatty Acids ± SEM” value was 2867.4 ± 267.7 µM and the “Triglycerides ± SEM” value is given as 132.0 ± 15.2 mg/dL.
